Experimental data as given in US11779015B2, “Pesticide compositions” (FUNDACIÓ CENTRE DE REGULACIÓ GENÒMICA, priority 2017, dated 2023).

How the values were obtained:
adult D. suzukii flies = experiment: Petri dish assay, dose-range 0.3 to 10% vol in paraffin oil, 24 h exposure (FIG. 3E); assay type: in vivo, Drosophila suzukii; conditions: paraffin oil, 24 h exposure (Example 2)
From the text: Data are represented as mean proportion of dead flies, with counts separated between male (as indicated by ‘M’) and female (as indicated by ‘F’) flies. […] Data points marked NaN were not tested at the indicated concentration. The MEC column summarises the minimal effective concentration to induce 100% morbidity/mortality to adult D. suzukii flies.

D. suzukii larvae [1] = experiment: Survival and development of larvae in pre-infested blueberries; assay type: in vivo, Drosophila suzukii; conditions: counted after 12 days
Procedure: To investigate the impact of (E)-2-hexenal on the emergence of D. suzukii, eight ripe, untreated blueberries were placed in the cage 60a together with adult D. suzukii flies for 4 days. All flies were then removed and discarded and half of the pre-infested blueberries was dipped into 10 mL of a 1%, 5% or 10% E-2-hexenal aqueous emulsion (as above), while the other half was dipped in 10 mL deionized water as a control. Survival of D. suzukii larvae was measured by counting the number of adult flies that emerged from the odour-treated blueberries versus the control condition after 12 days.
The percentage of adult fly emergence under the treated and untreated conditions relative to the sum of all flies that emerged under both conditions in each assay was calculated. The results of these experiments are shown on FIG. 6C (1% vol (E)-2-hexenal), FIG. 6D (5% vol. (E)-2-hexenal), and FIG. 6E (10% vol. (E)-2-hexenal).
Eight ripe, untreated blueberries were placed in a Petri dish at the bottom of a cylindrical plastic fly cage together with 20 mixed (10 females, 10 males) adult D. suzukii flies for 4 days. All flies were then removed and discarded and half of the pre-infested blueberries was dipped into 10 mL of a 1%, 5% or 10% (E)-2-hexenal aqueous emulsion, while the other half was dipped in 10 mL deionised water as a control. The blueberries were then left to air dry, then placed in empty fly vials with cotton lids and left at ambient room temperature conditions. Survival of D. suzukii larvae was measured by counting the number of adult flies that emerged from the odour-treated blueberries versus the control condition after 12 days. The assay was repeated 5 times.

[2] = tested on: honeybees (Apis mellifera); experiment: Airborne toxicity on honeybees in the petri dish assay; assay type: in vivo; conditions: applied concentration 4%, paraffin oil, 24 hours
[3] = tested on: adult flies of D. suzukii; experiment: Contact toxicity, adult flies sprayed in a bugdorm; assay type: in vivo, Drosophila suzukii; conditions: for Proportion of dead flies (%): sprayed; for concentration inducing mortality by contact (as low as): sprayed adult D. suzukii
Procedure: Contact toxicity of E-2-hexenal and methyl benzoate volatiles was tested at different concentrations and in combination with thickeners in different concentration that make E-2-hexenal and methyl benzoate stick to the flies. […] Flies (10-15 mixed males/females) were placed into a bugdorm and sprayed from a distance of 10 cm. Mortality was evaluated after 24 hrs, except for the condition indicated with a star in Table 3, where an exposure time of 50 minutes was used. Thickeners were diluted in aqueous emulsions of deionised water containing 1% vol. Tween 20.

[4] = tested on: larvae of the other species of the Drosophila melanogaster species group; experiment: Fly larva chemotaxis assay; assay type: in vivo, Drosophila spp.; conditions: 1% vol in paraffin oil, 5 minutes
Procedure: (§1) Larvae were exposed to 1% vol solution of (E)-2-hexenal or methyl benzoate in paraffin oil loaded onto the lid of a petri dish. Their movement was tracked for 5 minutes. A preference index was quantified as the fraction of time larvae spent in a zone around the odour sources. A population of 15 larvae were used per trial and they were placed in the centre of the petri dish at the start of the experiment. The average distance of the larvae to the odour sources was also quantified over time. The results of this analysis are shown on FIG. 9, for each of the conditions where a VOC of the invention was used. A total of 10 trials were performed for each condition, i.e. for each VOC and fly species, and 30 trials were performed for a control condition, for which only the solvent paraffin oil was applied.
(§2) Behavioural experiments were performed with third instar foraging larvae. A group of approximately 15 larvae per trial was placed in a Petri dish and monitored during 5 minutes for their chemotactic behaviour, as larvae were exposed to an odour gradient in gas phase emanating from the two odour sources on the lid of the Petri dish. […] Larval behaviour was tracked using a video camera and the data derived was then analysed in Matlab (MathWorks) using custom-made programs to calculate additional time-series variables, and to determine the preference index and the distance of larvae to the source.

D. suzukii larvae [5] = experiment: Fly larva chemotaxis assay; assay type: in vivo, Drosophila suzukii; conditions: 1% vol in paraffin oil, 5 minutes
Procedure: as §1, §2

D. melanogaster = experiment: Airborne toxicity petri dish assay, adult flies exposed to VOC vapours (FIG. 1A); assay type: in vivo, Drosophila melanogaster; conditions: for LD50 (expected concentration at which 50% of the flies die): D. melanogaster adults, vapours from solution in paraffin oil, within an hour
From the text: In particular, adult flies 2 were exposed to compositions 4 comprising one or more of a selection of VOCs according to the invention or a comparative example, in a petri dish 6. The compositions 4 were loaded onto the lid 6a of the petri dish 6 and the flies were placed into the base 6b of the dish, which was then covered by a sheet of plastic mesh netting 8 to avoid direct contact of the flies 2 with the compositions 4, before replacing the lid 6a. The onset of paralysis/loss of locomotion control, ultimately resulting in death of the flies 2, was monitored over a period of 1 hour or until all flies 2 were dead, determined when fly wings were vertical (similar to the protocol described in Legal et al. 1992 and 1994).
Having established that the VOCs of the invention are toxic to Drosophila spp., and in particular, D. suzukii, upon exposure to the vapours from a 10% vol. solution, the inventors set out to determine the range of concentrations at which the pesticide VOCs of the invention are expected to be lethal to Drosphila spp. Two species were chosen: the pest D. suzukii and the common Drosophila model D. melanogaster. Two exemplary compounds were chosen: (E)-2-hexenal and methyl benzoate, both of which were shown in Example 1 to be highly toxic to D. suzukii. The experimental set up used was as described in relation to FIG. 1A.
FIGS. 3A and 3C show the proportion of dead flies as a function of time in minutes, when exposed to the vapours of (E)-2-hexenal (FIG. 3A) or methyl benzoate (FIG. 3C) from a 1%, 5%, 10%, or 20% solution in paraffin oil or from pure (E)-2-hexenal or methyl benzoate. […] The data is shown as averages±SEM based on 3 to 6 trials for each condition. […]

D. santomea larvae = experiment: Fly larva chemotaxis assay; assay type: in vivo; conditions: 1% vol in paraffin oil, 5 minutes
Procedure: as §1, §2

D. melangaster larvae = experiment: Fly larva chemotaxis assay; assay type: in vivo, Drosophila melanogaster; conditions: D. melanogaster larvae, 1% vol in paraffin oil, 5 minutes
Procedure: as §1, §2

[6] = 0.1% compound + 1% Arabic Gom, 24 hrs
[7] = 0.1% compound + 1% hydroxyethylcellulose, 24 hrs
[8] = 0.1% compound, mortality after 24 hrs
[9] = 1% compound + 1% Arabic Gom, 24 hrs
[10] = 1% compound + 1% hydroxyethylcellulose, 24 hrs
[11] = 5% compound, mortality after 24 hrs
[12] = *1% compound, exposure time of 50 minutes
[13] = D. melanogaster, concentration 1% vol
[14] = D. melanogaster, concentration 5% vol
[15] = D. melanogaster, concentration 10% vol
[16] = D. melanogaster, concentration 20% vol
[17] = D. melanogaster, concentration 100% vol

SMILES	Proportion of dead flies (%) [3, 6]	Proportion of dead flies (%) [3, 7]	Proportion of dead flies (%) [3, 8]	Proportion of dead flies (%) [3, 9]	Proportion of dead flies (%) [3, 10]	Proportion of dead flies (%) [3, 11]	Proportion of dead flies (%) [3, 12]	concentration inducing mortality by contact (as low as) [3]	larval chemotactic response (D. suzukii larvae [5])	LD50 (expected concentration at which 50% of the flies die) (D. melanogaster)	T50 (time at which 50% of the flies were dead) (D. melanogaster; [13])	T50 (time at which 50% of the flies were dead) (D. melanogaster; [14])	T50 (time at which 50% of the flies were dead) (D. melanogaster; [15])	T50 (time at which 50% of the flies were dead) (D. melanogaster; [16])	T50 (time at which 50% of the flies were dead) (D. melanogaster; [17])	further results
CCC/C=C/C=O [(E)-2-hexenal]	80%	80%	31%	10%	50%	100%	50%	0.1%	attractive chemotactic responses	13.8 % vol	not lethal	not lethal	not lethal	6.5 min	6.2 min	Minimal concentration (%) to induce 100% morbidity/mortality in D. suzukii adults (adult D. suzukii flies): 4%; adult fly emergence from pre-infested blueberries versus control (D. suzukii larvae [1]; 1% vol aqueous emulsion dip): not statistically significantly (NS) different from the control condition; adult fly emergence from pre-infested blueberries versus control (D. suzukii larvae [1]; 5% vol aqueous emulsion dip): does not result in any adult fly emergence; adult fly emergence from pre-infested blueberries versus control (D. suzukii larvae [1]; 10% vol aqueous emulsion dip): does not result in any adult fly emergence; Percentage of dead honey bee adults (%) [2]: 0%; larval chemotactic response [4]: attractive chemotactic responses
COC(=O)c1ccccc1 [methyl benzoate, Methyl benzoate]	30%	10%	33%	30%	70%	100%	30%	0.1%	strongly repulsive	7.5 % vol	non lethal	non lethal	18.2 min	9.8 min	9.1 min	larval chemotactic response (D. santomea larvae): strongly attractive; larval chemotactic response (D. melangaster larvae): attractive; T50 (D. melanogaster; D. melanogaster, 10% vol): 18.2 min
